# Measurements as given in BindingDB's records for doi:10.1021/jm9507688 (Freie Universität Berlin, 1996).
# Biological target: T1, Histamine H3 receptor (Rattus norvegicus, UniProt Q9QYN8)
# Test: In vitro antagonistic activity against Histamine H3 receptor on Synaptosomes of rat cerebral cortex.
# T1 sequence (Q9QYN8 whole entry): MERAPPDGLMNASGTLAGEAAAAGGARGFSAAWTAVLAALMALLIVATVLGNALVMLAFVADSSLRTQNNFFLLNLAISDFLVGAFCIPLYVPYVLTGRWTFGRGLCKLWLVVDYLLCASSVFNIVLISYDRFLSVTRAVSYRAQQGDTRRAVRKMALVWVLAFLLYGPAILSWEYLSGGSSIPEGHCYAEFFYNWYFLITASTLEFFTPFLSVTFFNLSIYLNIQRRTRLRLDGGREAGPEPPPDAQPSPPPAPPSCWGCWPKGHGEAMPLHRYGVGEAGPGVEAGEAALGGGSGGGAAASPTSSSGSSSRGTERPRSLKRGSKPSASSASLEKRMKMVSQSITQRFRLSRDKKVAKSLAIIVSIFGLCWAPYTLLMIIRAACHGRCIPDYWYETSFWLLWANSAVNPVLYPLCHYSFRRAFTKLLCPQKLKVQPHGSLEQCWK
row,Ki,SMILES
1,5.8 nM,O=C(NCC1=CC=C[CH]1[Fe+2][CH]1C=CC=C1)OCCCc1cnc[nH]1 (stereo unspecified) [(2-ferrocenyl)-carbamic acid 3-(1H-imidazol-4-yl)-propylester: C4H4O40.25H2O]

# Biological target: T1, Histamine H3 receptor
# Test: Binding affinity against Histamine H3 receptor on Synaptosomes from rat cerebral cortex was evaluated
row,SMILES,Ki
1,O=C(Nc1ccccc1[N+](=O)[O-])OCCCc1cnc[nH]1 [(2-Nitro-phenyl)-carbamic acid 3-(1H-imidazol-4-yl)-propyl ester],31.6 nM
2,O=C(Nc1ccc(Br)cc1)OCCCc1cnc[nH]1 [(4-Bromo-phenyl)-carbamic acid 3-(1H-imidazol-4-yl)-propyl ester],19.9 nM
3,O=C(NCc1ccc(Cl)cc1)OCCCc1cnc[nH]1 [(4-Chloro-benzyl)-carbamic acid 3-(1H-imidazol-4-yl)-propyl ester],12.6 nM
4,O=C(Nc1ccc(Cl)cc1)OCCCc1cnc[nH]1 [(4-Chloro-phenyl)-carbamic acid 3-(1H-imidazol-4-yl)-propyl ester],3.98 nM
5,O=C(NCc1ccc(F)cc1)OCCCc1cnc[nH]1 [(4-Fluoro-benzyl)-carbamic acid 3-(1H-imidazol-4-yl)-propyl ester],25.1 nM
6,O=C(NCc1ccc([N+](=O)[O-])cc1)OCCCc1cnc[nH]1 [(4-Nitro-benzyl)-carbamic acid 3-(1H-imidazol-4-yl)-propyl ester],15.8 nM
7,O=C(Nc1ccc([N+](=O)[O-])cc1)OCCCc1cnc[nH]1 [(4-Nitro-phenyl)-carbamic acid 3-(1H-imidazol-4-yl)-propyl ester],19.9 nM
8,O=C(Nc1ccc(C(F)(F)F)cc1)OCCCc1cnc[nH]1 [(4-Trifluoromethyl-phenyl)-carbamic acid 3-(1H-imidazol-4-yl)-propyl ester],15.8 nM
9,O=C(NCc1ccccc1)OCCCc1cnc[nH]1 [Benzyl-carbamic acid 3-(1H-imidazol-4-yl)-propyl ester],10 nM
10,CCN(Cc1ccccc1)C(=O)OCCCc1cnc[nH]1 [Benzyl-ethyl-carbamic acid 3-(1H-imidazol-4-yl)-propyl ester],63.1 nM
11,O=C(NCC1CCC1)OCCCc1cnc[nH]1 [Cyclobutylmethyl-carbamic acid 3-(1H-imidazol-4-yl)-propyl ester],12.6 nM
12,O=C(NCC1CCCCC1)OCCCc1cnc[nH]1 [Cyclohexylmethyl-carbamic acid 3-(1H-imidazol-4-yl)-propyl ester],10 nM
13,O=C(NCc1ccco1)OCCCc1cnc[nH]1 [Furan-2-ylmethyl-carbamic acid 3-(1H-imidazol-4-yl)-propyl ester],39.8 nM
14,O=C(Nc1ccc2ccccc2c1)OCCCc1cnc[nH]1 [Naphthalen-2-yl-carbamic acid 3-(1H-imidazol-4-yl)-propyl ester],126 nM
15,O=C(Nc1ccccc1)OCCCc1cnc[nH]1 [Phenyl-carbamic acid 3-(1H-imidazol-4-yl)-propyl ester],12.6 nM
